# Test results taken from patent US20180077929A1, “METHODS AND SYSTEMS FOR TREATING MEDICAL DEVICES AND FLUIDS” (priority 2016, published 2018).
# Several values for one entry are separate records, joined by “and”; a condition that tells them apart may be missing. Equal entries are not always repeated.
# Key:
# Type in all cases: biochemical
# [1] = Efficacy of sonicated CaSt suspension stored 1 month
# Description: 10 ml of LRW water (LAL reagent water, contains no endotoxin) containing 0.04 g of CaSt suspension was sonicated using Misonix Probe Sonicator, Model: S-4000, Amplitude: 30, Time: 30 seconds and then the suspension was stored for 1 month at ambient temperature. Then 1 ml of the above suspension was added to 10 ml endotoxin containing water SRW and the resulting endotoxin concentrations in the combined solution measured after 15 min and 30 min, with the results presented in Table 14.
# [2] = Detection of LPS after adding CaSt powder to water spiked with LPS (Kinetic Chromogenic Method, Endosafe MCS)
# Description: Water and aqueous solutions (containing LPS with various sources of endotoxin) were exposed to calcium stearate [CaSt] […] 5 mL of water solution of known endotoxin concentration (generated by spiking endotoxin-free water with water solution of known endotoxin concentration) was added to the each test tube, vortexed vigorously (1 minute) using Fisher Scientific Digital Vortex Mixer, and then placed in a warm water bath (37° C.) for 1 hour. After 1 hour, the tubes were removed from warm water bath and vortexed vigorously (1 minute). Sterile syringes with needles were used to extract the solution without removing the calcium stearate. This solution was then tested for endotoxin levels. Kinetic Chromogenic Method for Endotoxin Quantitation, using Endosafe MCS Multi Cartridge System by Charles River Laboratories, Charleston S.C.
# The total LPS added to test tubes was about 5 EU, with the detected LPS after the treatment was 3% to 8% of the initial concentration.
# The total LPS added to test tubes was about 14400 EU, with the detected LPS after the treatment was 0.07%-0.08% of the initial concentration.
# The total LPS added to test tubes was about 14400 EU, with the detected LPS after the treatment was CaSt dependent and was a function of the amount of CaSt added. CaSt addition ranged about 100 fold from 0.0027 g to 0.25 g, with the detected LPS after the treatment was ranging from 77% to 0.19% of respectively as a percent of the initial concentration. […] In summary, there are three factors that drive the stearates performance to remove/neutralize endotoxins. These three factors, not necessarily listed in order of importance, are concentration, time of exposure, and energy in solution at the micro level.
# [3] = Detection of LPS in water in presence of CaSt and EDTA and Tween 20; settings: 8330 EU spiked
# Description: Further testing was performed with addition of EDTA and Polysorbate 20 reagents to verify permanent removal of LPS/endotoxin activity, by adding EDTA and Polysorbate 20 to the extraction solutions to test for potential recovery of endotoxin activity when introduced to these two substances.
# The testing was performed in aqueous solutions with added EDTA and Polysorbate 20, with suspended CaSt present in some solutions in varying quantities. […] The tubes were vortexed for 1 minute and placed in a 37 C bath for 1 hour. The tubes were removed from the bath and again vortexed for 1 minute. The solutions were diluted and tested for endotoxin using the Kinetic Chromogenic Method for Endotoxin Quantitation, Charles River Laboratories, Charleston S.C. […] These samples were rigorously vortexed and tested using the Kinetic Chromogenic Method for Endotoxin Quantitation, Charles River Laboratories, Charleston S.C.
# [4] = Kinetics of removal of LPS with different agitation techniques and stearate salts; settings: for Endotoxin Detected: 5 mL SRW, baseline 1,502 EU; for Percent (%) Removed: SRW baseline 1,502 EU
# Description: 5 mL of SRW was added to each of the tubes. Each solution was tested for endotoxin removal after agitation based on with sonication, vortexing, or test tube rolling. Sonication samples were sonicated at each indicated time interval for 30 seconds at a magnitude of 30. Vortex samples were vortexed at each indicated time interval for 30 seconds at 2500 RPM. Rolling samples were constantly rolling at 10 rpm. The samples were tested on the MCS for endotoxin at 1 minute, 20 minutes, 40 minutes, 60 minutes, and 80 minutes.
# [5] = 0.0027 g CaSt in 5 mL water, 14,400 EU spiked
# [6] = 0.0108 g CaSt in 5 mL water, 14,400 EU spiked
# [7] = 0.0518 g CaSt in 5 mL water, 14,400 EU spiked
# [8] = 0.2502 g CaSt in 5 mL water, 14,400 EU spiked
# [9] = 0.254-0.2607 g CaSt powder in 5 mL water, 14,400 EU spiked, 0.254 g CaSt powder added
# [10] = 0.254-0.2607 g CaSt powder in 5 mL water, 14,400 EU spiked, 0.2607 g CaSt powder added
# [11] = CaSt suspension 0.007 g in 5 mL
# [12] = CaSt suspension 0.007 g with 0.1M EDTA and 0.05% Tween20
# [13] = CaSt suspension 0.018 g in 5 mL
# [14] = CaSt suspension 0.018 g with 0.1M EDTA and 0.05% Tween20
# [15] = CaSt suspension 0.028 g in 5 mL
# [16] = CaSt suspension 0.028 g with 0.1M EDTA and 0.05% Tween20
substance,measurement,setting,value
Calcium Stearate,Endotoxin EU/mL (15 min after addition of CaSt suspension),"[1]; 0.04 g CaSt in 10 ml LRW sonicated, stored 1 month, initial endotoxin 732.5 EU/mL, 15 min",372 EU/mL and 362 EU/mL
same,Endotoxin EU/mL (30 min after addition of CaSt suspension),"[1]; 0.04 g CaSt in 10 ml LRW sonicated, stored 1 month, initial endotoxin 732.5 EU/mL, 30 min",384 EU/mL and 278 EU/mL
same,Percent Endotoxin Removal (15 min),"[1]; sonicated CaSt suspension stored 1 month, 15 min",49.2% and 50.6%
same,Percent Endotoxin Removal (30 min),"[1]; sonicated CaSt suspension stored 1 month, 30 min",47.6% and 62.0%
same,Endotoxin Detected,[2]; [5],"11,055 EU"
same,Percent of detected Endotoxin vs. initial concentration,[2]; [5],77% and 76.77%
same,Endotoxin Detected,[2]; [6],"2,925 EU"
same,Percent of detected Endotoxin vs. initial concentration,[2]; [6],20% and 20.31%
same,Endotoxin Detected,[2]; [7],9.4 EU
same,Percent of detected Endotoxin vs. initial concentration,[2]; [7],0.07%
same,Endotoxin Detected,[2]; [8],26.7 EU
same,Percent of detected Endotoxin vs. initial concentration,[2]; [8],0.19%
same,Percent of detected Endotoxin vs. initial concentration,"[2]; 0.252-0.272 g CaSt powder in 5 mL water, 5.208 EU spiked, 37° C. 1 hour, 0.252 g CaSt powder added",<2.88%
same,Percent of detected Endotoxin vs. initial concentration,"[2]; 0.252-0.272 g CaSt powder in 5 mL water, 5.208 EU spiked, 37° C. 1 hour, 0.258 g CaSt powder added",<8.06%
same,Percent of detected Endotoxin vs. initial concentration,"[2]; 0.252-0.272 g CaSt powder in 5 mL water, 5.208 EU spiked, 37° C. 1 hour, 0.267 g CaSt powder added",<3.46%
same,Endotoxin Detected,[2]; [9],12.1 EU
same,Percent of detected Endotoxin vs. initial concentration,[2]; [9],0.08%
same,Endotoxin Detected,[2]; [10],10.3 EU
same,Percent of detected Endotoxin vs. initial concentration,[2]; [10],0.07%
same,Endotoxin Detected,[3]; [11],3995 EU
same,Percent detected Endotoxin,[3]; [11],48.0%
same,Endotoxin Detected,[3]; [12],5050 EU
same,Percent detected Endotoxin,[3]; [12],60.6%
same,Endotoxin Detected,[3]; [13],1487.5 EU
same,Percent detected Endotoxin,[3]; [13],17.9%
same,Endotoxin Detected,[3]; [14],1545 EU
same,Percent detected Endotoxin,[3]; [14],18.5%
same,Endotoxin Detected,[3]; [15],235 EU
same,Percent detected Endotoxin,[3]; [15],2.8%
same,Endotoxin Detected,[3]; [16],255 EU
same,Percent detected Endotoxin,[3]; [16],3.1%
same,Endotoxin Detected,"[4]; Rolling, 1 minute","1,230 EU"
same,Percent (%) Removed,"[4]; Rolling, 1 minute",18.1%
same,Endotoxin Detected,"[4]; Rolling, 20 minutes","1,050 EU"
same,Percent (%) Removed,"[4]; Rolling, 20 minutes",30.1%
same,Endotoxin Detected,"[4]; Rolling, 40 minutes",630 EU
same,Percent (%) Removed,"[4]; Rolling, 40 minutes",58.1%
same,Endotoxin Detected,"[4]; Rolling, 60 minutes",637 EU
same,Percent (%) Removed,"[4]; Rolling, 60 minutes",57.6%
same,Endotoxin Detected,"[4]; Rolling, 80 minutes",451 EU
same,Percent (%) Removed,"[4]; Rolling, 80 minutes",70%
same,Endotoxin Detected,"[4]; Sonication, 1 minute",270 EU
same,Percent (%) Removed,"[4]; Sonication, 1 minute",82%
same,Endotoxin Detected,"[4]; Sonication, 20 minutes",130 EU
same,Percent (%) Removed,"[4]; Sonication, 20 minutes",91.3%
same,Endotoxin Detected,"[4]; Sonication, 40 minutes",87.5 EU
same,Percent (%) Removed,"[4]; Sonication, 40 minutes",94.2%
same,Endotoxin Detected,"[4]; Sonication, 60 minutes",56.9 EU
same,Percent (%) Removed,"[4]; Sonication, 60 minutes",96.2%
same,Endotoxin Detected,"[4]; Sonication, 80 minutes",16.4 EU
same,Percent (%) Removed,"[4]; Sonication, 80 minutes",98.9%
same,Endotoxin Detected,"[4]; Vortexing, 1 minute",451 EU
same,Percent (%) Removed,"[4]; Vortexing, 1 minute",70%
same,Endotoxin Detected,"[4]; Vortexing, 20 minutes",301 EU
same,Percent (%) Removed,"[4]; Vortexing, 20 minutes",80%
same,Endotoxin Detected,"[4]; Vortexing, 40 minutes",139 EU
same,Percent (%) Removed,"[4]; Vortexing, 40 minutes",90.7%
same,Endotoxin Detected,"[4]; Vortexing, 60 minutes",173 EU
same,Percent (%) Removed,"[4]; Vortexing, 60 minutes",88.5%
same,Percent (%) Removed,"[4]; Vortexing, 80 minutes",93.1%
